Tests used:
[1] = biological target: Neuronal acetylcholine receptor subunit alpha-7 (Homo sapiens, UniProt P36544); experiment: Displacement of [3H]epibatidine from human alpha7 nAChR expressed in CHO cells after 2 hrs by liquid scintillation counting; type: cell-based
[2] = biological target: Neuronal acetylcholine receptor; alpha4/beta2 (Rattus norvegicus, UniProt P09483+P12390); experiment: Displacement of [3H]epibatidine from alpha4beta2 nAChR in Sprague-Dawley rat cortex after 2 hrs by liquid scintillation counting
[3] = biological target: T1, Neuronal acetylcholine receptor; alpha4/beta2 (Homo sapiens, UniProt P17787+P43681); experiment: Agonist activity at alpha4beta2 nAChR in human SH-EP1 cells assessed as calcium flux by calcium4-based FLIPR assay; type: functional, cell-based
[4] = biological target: T1, Neuronal acetylcholine receptor; alpha4/beta2; experiment: Agonist activity at alpha4beta2 nAChR in human SH-EP1 cells assessed as calcium flux by calcium4-based FLIPR assay relative to nicotine; type: functional, cell-based
[5] = biological target: T2, Neuronal acetylcholine receptor; alpha3/beta4 (Homo sapiens, UniProt P30926+P32297); experiment: Displacement of [3H]epibatidine from human alpha3beta4 nAChR expressed in CHO cells after 2 hrs by liquid scintillation counting; type: cell-based
[6] = biological target: T1, Neuronal acetylcholine receptor; alpha4/beta2; experiment: Displacement of [3H]nicotine from alpha4beta2 nAChR in human SH-EP1 cells after 2 hrs by liquid scintillation assay; type: cell-based
[7] = biological target: T2, Neuronal acetylcholine receptor; alpha3/beta4; experiment: Agonist activity at human alpha3beta4 nAChR expressed in CHO cells assessed as calcium flux by calcium4-based FLIPR assay; type: functional, cell-based
[8] = biological target: T2, Neuronal acetylcholine receptor; alpha3/beta4; experiment: Agonist activity at human alpha3beta4 nAChR expressed in CHO cells assessed as calcium flux by calcium4-based FLIPR assay relative to nicotine; type: functional, cell-based

T2 sequence (P30926 whole entry): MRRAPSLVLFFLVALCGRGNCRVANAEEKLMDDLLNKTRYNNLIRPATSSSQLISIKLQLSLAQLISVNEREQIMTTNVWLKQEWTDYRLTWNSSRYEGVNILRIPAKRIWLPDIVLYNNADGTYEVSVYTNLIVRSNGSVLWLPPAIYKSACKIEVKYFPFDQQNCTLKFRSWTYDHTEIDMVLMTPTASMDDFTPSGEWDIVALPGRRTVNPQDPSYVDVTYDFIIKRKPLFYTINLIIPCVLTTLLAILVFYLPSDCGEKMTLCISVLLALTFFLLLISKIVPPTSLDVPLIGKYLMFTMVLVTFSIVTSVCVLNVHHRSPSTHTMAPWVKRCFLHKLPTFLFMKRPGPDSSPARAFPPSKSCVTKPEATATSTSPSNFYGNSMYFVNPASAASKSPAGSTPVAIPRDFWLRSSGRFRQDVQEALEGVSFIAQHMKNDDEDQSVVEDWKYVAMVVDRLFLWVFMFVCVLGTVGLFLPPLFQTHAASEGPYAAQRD
T2 sequence (P32297 whole entry): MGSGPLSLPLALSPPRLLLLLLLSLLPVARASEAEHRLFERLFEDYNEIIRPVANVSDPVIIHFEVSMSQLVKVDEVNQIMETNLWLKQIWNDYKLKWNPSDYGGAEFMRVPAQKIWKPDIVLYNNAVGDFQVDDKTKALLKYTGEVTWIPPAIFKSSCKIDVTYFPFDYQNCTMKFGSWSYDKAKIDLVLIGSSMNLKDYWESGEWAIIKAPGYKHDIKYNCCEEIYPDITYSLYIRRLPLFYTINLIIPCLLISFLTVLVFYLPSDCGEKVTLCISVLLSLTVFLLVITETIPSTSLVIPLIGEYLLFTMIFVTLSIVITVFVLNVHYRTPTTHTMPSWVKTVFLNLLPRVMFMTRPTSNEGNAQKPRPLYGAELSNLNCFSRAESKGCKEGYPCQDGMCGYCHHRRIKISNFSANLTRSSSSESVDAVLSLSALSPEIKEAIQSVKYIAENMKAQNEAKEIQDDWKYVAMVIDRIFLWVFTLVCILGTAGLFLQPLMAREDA
Sequence of Neuronal acetylcholine receptor subunit alpha-7 (P36544 whole entry): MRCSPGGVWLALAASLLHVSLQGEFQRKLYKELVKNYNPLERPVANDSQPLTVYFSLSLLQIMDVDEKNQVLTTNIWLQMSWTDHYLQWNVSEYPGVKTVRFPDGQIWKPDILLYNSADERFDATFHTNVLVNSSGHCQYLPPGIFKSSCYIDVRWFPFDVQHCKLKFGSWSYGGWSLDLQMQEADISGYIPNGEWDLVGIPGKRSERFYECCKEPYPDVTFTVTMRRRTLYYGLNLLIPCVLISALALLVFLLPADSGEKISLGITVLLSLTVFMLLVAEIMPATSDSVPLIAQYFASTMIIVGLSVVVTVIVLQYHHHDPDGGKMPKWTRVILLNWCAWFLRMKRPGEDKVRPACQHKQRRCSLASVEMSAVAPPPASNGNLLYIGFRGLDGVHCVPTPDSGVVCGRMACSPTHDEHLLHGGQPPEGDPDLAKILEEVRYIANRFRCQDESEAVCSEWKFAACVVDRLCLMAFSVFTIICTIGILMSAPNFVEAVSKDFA
T1 sequence (P17787 whole entry): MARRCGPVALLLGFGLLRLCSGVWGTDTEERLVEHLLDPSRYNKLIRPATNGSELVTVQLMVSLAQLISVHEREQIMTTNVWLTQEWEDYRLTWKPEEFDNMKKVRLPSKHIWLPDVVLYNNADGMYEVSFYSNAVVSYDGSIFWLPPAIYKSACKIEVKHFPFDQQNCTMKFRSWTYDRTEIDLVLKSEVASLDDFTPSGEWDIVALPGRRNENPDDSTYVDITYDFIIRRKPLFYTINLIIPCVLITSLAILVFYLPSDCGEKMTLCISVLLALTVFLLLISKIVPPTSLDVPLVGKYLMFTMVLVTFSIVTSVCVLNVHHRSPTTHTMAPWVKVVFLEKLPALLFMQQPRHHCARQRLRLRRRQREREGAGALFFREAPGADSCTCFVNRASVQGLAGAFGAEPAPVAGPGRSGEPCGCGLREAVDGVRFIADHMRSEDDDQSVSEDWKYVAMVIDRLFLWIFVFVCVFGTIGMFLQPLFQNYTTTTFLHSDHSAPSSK
T1 sequence (P43681 whole entry): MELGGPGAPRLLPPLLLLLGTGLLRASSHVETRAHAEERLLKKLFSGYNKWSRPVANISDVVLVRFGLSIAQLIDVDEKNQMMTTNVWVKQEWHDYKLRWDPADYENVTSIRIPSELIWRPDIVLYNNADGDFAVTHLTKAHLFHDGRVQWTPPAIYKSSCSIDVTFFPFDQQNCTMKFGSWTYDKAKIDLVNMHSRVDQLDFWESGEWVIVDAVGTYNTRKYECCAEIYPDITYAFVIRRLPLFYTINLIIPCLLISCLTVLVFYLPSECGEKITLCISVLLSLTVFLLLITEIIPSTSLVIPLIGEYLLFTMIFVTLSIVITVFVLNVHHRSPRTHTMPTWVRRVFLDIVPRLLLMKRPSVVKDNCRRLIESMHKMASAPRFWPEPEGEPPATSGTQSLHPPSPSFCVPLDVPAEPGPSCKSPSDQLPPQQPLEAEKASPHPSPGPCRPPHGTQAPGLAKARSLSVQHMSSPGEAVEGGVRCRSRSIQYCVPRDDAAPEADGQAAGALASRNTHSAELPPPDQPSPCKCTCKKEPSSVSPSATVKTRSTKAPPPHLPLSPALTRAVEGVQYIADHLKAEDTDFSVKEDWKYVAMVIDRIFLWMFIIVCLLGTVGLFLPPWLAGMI
Sequence of Neuronal acetylcholine receptor; alpha4/beta2 (Rattus norvegicus, UniProt P09483+P12390) (P09483 whole entry): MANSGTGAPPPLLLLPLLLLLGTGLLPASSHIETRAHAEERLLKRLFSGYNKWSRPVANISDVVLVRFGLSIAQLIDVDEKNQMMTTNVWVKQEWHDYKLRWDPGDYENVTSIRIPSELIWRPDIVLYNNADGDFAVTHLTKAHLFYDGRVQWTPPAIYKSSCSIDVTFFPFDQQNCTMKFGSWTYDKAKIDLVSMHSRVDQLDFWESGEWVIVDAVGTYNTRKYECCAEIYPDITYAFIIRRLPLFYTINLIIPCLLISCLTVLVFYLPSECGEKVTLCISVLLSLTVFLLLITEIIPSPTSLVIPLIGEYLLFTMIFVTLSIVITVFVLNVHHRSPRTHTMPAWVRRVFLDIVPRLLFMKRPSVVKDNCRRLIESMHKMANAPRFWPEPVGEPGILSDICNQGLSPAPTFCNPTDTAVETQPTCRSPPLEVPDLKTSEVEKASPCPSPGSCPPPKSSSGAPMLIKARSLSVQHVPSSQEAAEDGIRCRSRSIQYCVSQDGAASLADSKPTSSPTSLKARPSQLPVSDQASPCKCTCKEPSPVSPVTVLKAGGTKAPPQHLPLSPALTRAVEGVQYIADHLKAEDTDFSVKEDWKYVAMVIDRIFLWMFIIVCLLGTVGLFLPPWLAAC
Sequence of Neuronal acetylcholine receptor; alpha4/beta2 (Rattus norvegicus, UniProt P09483+P12390) (P12390 whole entry): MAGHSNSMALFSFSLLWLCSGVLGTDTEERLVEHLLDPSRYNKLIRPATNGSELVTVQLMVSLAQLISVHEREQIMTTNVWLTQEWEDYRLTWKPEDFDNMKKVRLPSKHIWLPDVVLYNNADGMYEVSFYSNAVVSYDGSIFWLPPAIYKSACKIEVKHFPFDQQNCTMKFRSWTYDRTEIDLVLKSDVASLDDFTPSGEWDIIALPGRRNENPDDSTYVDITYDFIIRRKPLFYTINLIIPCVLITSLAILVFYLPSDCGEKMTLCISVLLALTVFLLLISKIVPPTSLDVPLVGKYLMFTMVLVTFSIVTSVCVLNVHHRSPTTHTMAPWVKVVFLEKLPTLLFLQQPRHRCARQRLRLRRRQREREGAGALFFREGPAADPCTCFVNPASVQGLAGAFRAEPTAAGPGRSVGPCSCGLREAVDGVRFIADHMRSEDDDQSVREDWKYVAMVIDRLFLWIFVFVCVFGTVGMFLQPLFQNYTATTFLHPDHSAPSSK

Structure (SMILES) | Ki [1] [µM] | Ki [2] [µM] | EC50 [3] [µM] | Emax [4] [%] | Ki [5] [µM] | Ki [6] [µM] | EC50 [7] [µM] | Emax [8] [%]
O=C(C1CC1)N1CC2CNC(C2)C1 (stereo not drawn) | 0.35 | 0.001 | 1.7 | 100 | 0.42 | 0.004 | 4.2 | 150
O=C(c1ccc(F)o1)N1CC2CNCC2C1 (stereo not drawn) | 1.2 | 0.051 | 5.8 | 140 | 12 | 0.008 | 31 | 55
O=C(c1cnco1)N1CC2CNCC2C1 (stereo not drawn) | 7.6 | 0.13 | 4.2 | 110 | 11 | 0.11 | 35 | 11
O=C(C1CC1)N1C[C@H]2CN[C@@H](C2)C1 | 0.04 | 0.01 | 1.7 | 100 | 0.11 | 0.007 | 1.4 | 140
O=C(c1occc1Cl)N1CC2CNCC2C1 (stereo not drawn) | 2.6 | 0.012 | 17 | 79 | 2.4 | 0.002 | 22 | 110
O=C(c1ccncc1)N1CC2CNC(C2)C1 (stereo not drawn) | 1.3 | 0.025 | 42 | 8 | 1.5 |  | 9.2 | 110
O=C(c1ccncc1)N1CC2CNCC2C1 (stereo not drawn) | 15 | 0.02 | 21 | 56 | 5.4 | 0.067 | 32 | 33
O=C(c1cc(Br)co1)N1CC2CNCC2C1 (stereo not drawn) | 4.6 | 0.091 | 6.5 | 15 | 7.7 | 0.016 | 36 | 45
O=C(c1ccccc1)N1CC2CNCC(C2)C1 | 34 | 1.7 | 100 | 8 | 100 | 0.92 | 28 | 8
O=C(c1ccco1)N1CC2CNCC(C2)C1 | 8.2 | 0.029 | 1.9 | 65 | 8.1 | 0.02 | 43 | 57
O=C(c1ccno1)N1CC2CNCC2C1 (stereo not drawn) | 19 | 0.047 | 6.8 | 150 | 7.1 | 0.049 | 66 | 17
O=C(c1ccccc1)N1CC2CNCC2C1 (stereo not drawn) | 20 | 0.0011 | 36 | 9 | 15 | 0.2 | 28 | 18
O=C(c1cc(F)co1)N1CC2CNCC2C1 (stereo not drawn) | > 10 |  | 1.4 | 130 | 8.3 | 0.032 | 36 | 17
O=C(c1ccc(Cl)o1)N1C[C@H]2CN[C@@H](C2)C1 | 14 | 0.12 | 3 | 92 | 5.2 | 0.016 | 14 | 100
O=C(c1ncco1)N1CC2CNCC2C1 (stereo not drawn) | 14 | 0.47 | 31 | 65 | 100 | 0.34 | 79 | 5
O=C(c1ccccn1)N1CC2CNCC2C1 (stereo not drawn) | 100 | 0.34 | 34 | 44 | 21 | 0.25 | 51 | 3
O=C(c1ccco1)N1C[C@@H]2CN[C@H](C2)C1 | 5.5 | 0.011 | 7.4 | 36 | 0.45 | 0.013 | 15 | 130
O=C(C1CC1)N1C[C@@H]2CN[C@H](C2)C1 | 0.21 | 0.022 | 0.45 | 130 | 0.2 | 0.001 | 1.8 | 180
O=C(C1CC1)N1CC2CNCC(C2)C1 | 0.02 | 0.002 | 0.85 | 46 | 0.11 | 0.001 | 1.2 | 160
O=C(c1ccc(Br)o1)N1C[C@@H]2CN[C@H](C2)C1 | 8.2 | 0.057 | 12 | 27 | 1.5 | 0.009 | 16 | 61

Structure (SMILES) | Ki [1] [µM] | Ki [2] [µM] | EC50 [3] [µM] | Emax [4] [%] | Ki [5] [µM] | Ki [6] [µM] | EC50 [7] [µM] | Emax [8] [%]
N#Cc1ccc(C(=O)N2CC3CNCC3C2)o1 (stereo not drawn) | > 10 |  | 24 | 90 | 4.8 | 0.053 | 61 | 14
O=C(c1ccc(Br)o1)N1CC2CNCC2C1 (stereo not drawn) | > 10 | 0.24 | 22 | 40 | 7.2 | 0.074 | 29 | 25
O=C(c1occc1Br)N1CC2CNCC2C1 (stereo not drawn) | 6.3 | 0.008 | 4.2 | 90 | 3.8 | 0.002 | 27 | 83
O=C(c1ccoc1)N1CC2CNCC2C1 (stereo not drawn) | 100 |  | 5.8 | 110 | 4.8 | 0.019 | 35 | 31
O=C(c1ccc(F)o1)N1C[C@@H]2CN[C@H](C2)C1 | 14 | 0.017 | 2.1 | 110 | 0.9 | 0.005 | 6.9 | 110
O=C(c1ccc(F)o1)N1C[C@H]2CN[C@@H](C2)C1 | 1.6 | 0.12 | 1.7 | 120 | 0.6 | 0.012 | 4 | 120
O=C(c1ccco1)N1C[C@H]2CN[C@@H](C2)C1 | 0.56 | 0.097 | 4.7 | 83 | 1.7 | 0.015 | 17 | 120
O=C(c1ccc(Br)o1)N1C[C@H]2CN[C@@H](C2)C1 | 14 | 0.085 | 4.8 | 50 | 3 | 0.045 | 13 | 43
O=C(c1ccco1)N1CC2CNCC2C1 (stereo not drawn) | 5.9 | 0.053 | 4.5 | 170 | 72 |  | 42 | 32
N#Cc1coc(C(=O)N2CC3CNCC3C2)c1 (stereo not drawn) | 8.6 | 0.12 | 11 | 22 | 8.7 | 0.027 | 31 | 21
N#Cc1ccoc1C(=O)N1CC2CNCC2C1 (stereo not drawn) | 8.8 | 0.068 | 100 | 76 | 3.2 | 0.013 | 22 | 96
O=C(c1occc1F)N1CC2CNCC2C1 (stereo not drawn) | > 10 | 0.054 | 4.8 | 96 | 6.5 | 0.023 | 44 | 35
O=C(c1ccncc1)N1CC2CNCC(C2)C1 | > 10 | 0.057 | 19 | 7 | > 10 | 0.037 | 54 | 6
COc1ccc(C(=O)N2CC3CNCC3C2)cc1 (stereo not drawn) | 100 | 0.14 | 43 | 9 | 8.4 | 0.026 | 31 | 22
COc1ccc(C(=O)N2CC3CNCC(C3)C2)cc1 | 100 | 0.38 | 4.3 | 6 | 27 | 0.06 | 28 | 7
Cc1ccoc1C(=O)N1CC2CNCC2C1 (stereo not drawn) | 3.7 | 0.022 | 14 | 64 | 2.2 | 0.032 | 23 | 40
O=C(C1CC1)N1CC2CNCC2C1 (stereo not drawn) | 0.84 | 0.007 | 0.47 | 110 | 0.67 | 0.004 | 4.9 | 130
O=C(c1cc(Cl)co1)N1CC2CNCC2C1 (stereo not drawn) | > 10 | 0.065 | 11 | 39 | 7.1 | 0.011 | 56 | 53
Cc1ccc(C(=O)N2CC3CNCC3C2)o1 (stereo not drawn) | 8.2 | 0.23 | 22 | 44 | > 10 | 0.042 | 57 | 7
O=C(c1ccco1)N1CC2CNC(C2)C1 (stereo not drawn) | 7.8 |  | 2.6 | 65 | 1.7 |  | 6.9 | 34

From ChEMBL document CHEMBL2176988 (J Med Chem, 2012)
